Biological target: T1, human PAH with the R408W mutation (A375 R408W cells) (Homo sapiens, UniProt P00439, R408W)
T1 construct: expressed in transfected cells
T1 sequence (P00439 1-452 R408W): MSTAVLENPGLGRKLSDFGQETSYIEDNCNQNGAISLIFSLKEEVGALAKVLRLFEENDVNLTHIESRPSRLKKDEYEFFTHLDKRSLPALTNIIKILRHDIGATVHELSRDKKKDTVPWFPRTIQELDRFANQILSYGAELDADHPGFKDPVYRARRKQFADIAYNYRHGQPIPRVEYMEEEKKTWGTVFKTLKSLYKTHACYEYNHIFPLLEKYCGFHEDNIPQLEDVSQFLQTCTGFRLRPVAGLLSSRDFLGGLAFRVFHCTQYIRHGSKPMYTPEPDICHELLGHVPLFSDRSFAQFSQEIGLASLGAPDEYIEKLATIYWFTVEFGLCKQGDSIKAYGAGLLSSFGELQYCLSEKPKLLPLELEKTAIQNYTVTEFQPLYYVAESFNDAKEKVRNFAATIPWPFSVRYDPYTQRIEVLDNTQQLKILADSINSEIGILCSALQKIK
Assay: Cell Based Phenylalanine Flux Assay
Conditions: A375 R408W cells; 24 hrs with compound, then 20 μM sepiapterin and 800 μM 13C9,15N-Phenylalanine for 4 hours; 13C-Tyrosine by LC-MS; average where tested multiple times
How it was run: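 A375 cells stably expressing lentiviral human PAH R408W were treated with compounds (10-point 2-fold dilutions, 0.5% DMSO, duplicate) for 24 h at 37 °C. Then 20 μM sepiapterin and 800 μM 13C9,15N-Phe were added for 4 h; media 13C-Tyr was measured by LC-MS to give AC50.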

AC50 [nM] | Compound
500 to 1000 | O=C(c1nnc(C2CC2)o1)N1CCc2[nH]cnc2[C@@H]1c1nc2c(F)ccc(F)c2o1 [Example 856, (R)-(5-cyclopropyl-1,3,4-oxadiazol-2-yl)(4-(4,7-difluorobenzo[d]oxazol-2-yl)-6,7-dihydro-1H-imidazo[4,5-c]pyridin-5(4H)-yl)methanone]
1000 to 5000 | Cc1cccc2nc([C@H]3c4nc[nH]c4CCN3C(=O)c3nnc(-c4ncccc4F)o3)oc12 [Example 857, (R)-(5-(3-fluoropyridin-2-yl)-1,3,4-oxadiazol-2-yl)(4-(7-methylbenzo[d]oxazol-2-yl)-6,7-dihydro-1H-imidazo[4,5-c]pyridin-5(4H)-yl)methanone]
≤ 500 | Cc1cccc2nc([C@@H]3c4nc[nH]c4CCN3C(=O)c3nnc(-c4ncccc4F)o3)oc12 [Example 858, (S)-(5-(3-fluoropyridin-2-yl)-1,3,4-oxadiazol-2-yl)(4-(7-methylbenzo[d]oxazol-2-yl)-6,7-dihydro-1H-imidazo[4,5-c]pyridin-5(4H)-yl)methanone]
1000 to 5000 | Cc1cccc2nc([C@H]3c4nc[nH]c4CCN3C(=O)c3nnc(-c4ccn(C(F)F)n4)o3)oc12 [Example 859, (R)-(5-(1-(difluoromethyl)-1H-pyrazol-3-yl)-1,3,4-oxadiazol-2-yl)(4-(7-methylbenzo[d]oxazol-2-yl)-6,7-dihydro-1H-imidazo[4,5-c]pyridin-5(4H)-yl)methanone]
500 to 1000 | Cc1cccc2nc([C@@H]3c4nc[nH]c4CCN3C(=O)c3nnc(-c4ccn(C(F)F)n4)o3)oc12 [Example 860, (S)-(5-(1-(difluoromethyl)-1H-pyrazol-3-yl)-1,3,4-oxadiazol-2-yl)(4-(7-methylbenzo[d]oxazol-2-yl)-6,7-dihydro-1H-imidazo[4,5-c]pyridin-5(4H)-yl)methanone]
500 to 1000 | O=C(c1nnc(-c2ccn(C(F)F)n2)o1)N1CCc2[nH]cnc2[C@@H]1c1nc2cccc(F)c2o1 [Example 861, (R)-(5-(1-(difluoromethyl)-1H-pyrazol-3-yl)-1,3,4-oxadiazol-2-yl)(4-(7-fluorobenzo[d]oxazol-2-yl)-6,7-dihydro-1H-imidazo[4,5-c]pyridin-5(4H)-yl)methanone]
≤ 500 | O=C(c1nnc(-c2ccn(C(F)F)n2)o1)N1CCc2[nH]cnc2[C@H]1c1nc2cccc(F)c2o1 [Example 862, (S)-(5-(1-(difluoromethyl)-1H-pyrazol-3-yl)-1,3,4-oxadiazol-2-yl)(4-(7-fluorobenzo[d]oxazol-2-yl)-6,7-dihydro-1H-imidazo[4,5-c]pyridin-5(4H)-yl)methanone]
≤ 500 | O=C(c1ocnc1CC(F)F)N1CCc2[nH]cnc2[C@H]1c1nc2cccc(F)c2o1 [Example 863, (S)-(4-(2,2-difluoroethyl)oxazol-5-yl)(4-(7-fluorobenzo[d]oxazol-2-yl)-6,7-dihydro-1H-imidazo[4,5-c]pyridin-5(4H)-yl)methanone]
≤ 500 | O=C(c1ocnc1CC(F)F)N1CCc2[nH]cnc2[C@@H]1c1nc2cccc(F)c2o1 [Example 864, (R)-(4-(2,2-difluoroethyl)oxazol-5-yl)(4-(7-fluorobenzo[d]oxazol-2-yl)-6,7-dihydro-1H-imidazo[4,5-c]pyridin-5(4H)-yl)methanone]
≤ 500 | O=C(c1ocnc1CC(F)F)N1CCc2[nH]cnc2[C@H]1c1nc2cc(F)ccc2o1 [Example 865, (S)-(4-(2,2-difluoroethyl)oxazol-5-yl)(4-(5-fluorobenzo[d]oxazol-2-yl)-6,7-dihydro-1H-imidazo[4,5-c]pyridin-5(4H)-yl)methanone]
500 to 1000 | O=C(c1ocnc1CC(F)F)N1CCc2[nH]cnc2[C@@H]1c1nc2cc(F)ccc2o1 [Example 866, (R)-(4-(2,2-difluoroethyl)oxazol-5-yl)(4-(5-fluorobenzo[d]oxazol-2-yl)-6,7-dihydro-1H-imidazo[4,5-c]pyridin-5(4H)-yl)methanone]

Continued, molecule first:

Compound | AC50 [nM]
O=C(c1nnc(-c2cnn(C(F)F)c2)o1)N1CCc2[nH]cnc2[C@H]1c1nc2ccccc2o1 [Example 841, (S)-(4-(benzo[d]oxazol-2-yl)-6,7-dihydro-1H-imidazo[4,5-c]pyridin-5(4H)-yl)(5-(1-(difluoromethyl)-1H-pyrazol-4-yl)-1,3,4-oxadiazol-2-yl)methanone] | ≤ 500
O=C(c1nnc(-c2cnn(C(F)F)c2)o1)N1CCc2[nH]cnc2[C@@H]1c1nc2ccccc2o1 [Example 842, (R)-(4-(benzo[d]oxazol-2-yl)-6,7-dihydro-1H-imidazo[4,5-c]pyridin-5(4H)-yl)(5-(1-(difluoromethyl)-1H-pyrazol-4-yl)-1,3,4-oxadiazol-2-yl)methanone] | 1000 to 5000
Cn1ccc(-c2nnc(C(=O)N3CCc4[nH]cnc4[C@H]3c3nc4ccccc4o3)o2)n1 [Example 843, (S)-(4-(benzo[d]oxazol-2-yl)-6,7-dihydro-1H-imidazo[4,5-c]pyridin-5(4H)-yl)(5-(1-methyl-1H-pyrazol-3-yl)-1,3,4-oxadiazol-2-yl)methanone] | ≤ 500
Cn1ccc(-c2nnc(C(=O)N3CCc4[nH]cnc4[C@@H]3c3nc4ccccc4o3)o2)n1 [Example 844, (R)-(4-(benzo[d]oxazol-2-yl)-6,7-dihydro-1H-imidazo[4,5-c]pyridin-5(4H)-yl)(5-(1-methyl-1H-pyrazol-3-yl)-1,3,4-oxadiazol-2-yl)methanone] | 500 to 1000
O=C(c1nnc(-c2ccn(C(F)F)n2)o1)N1CCc2[nH]cnc2[C@@H]1c1nc2ccccc2o1 [Example 845, (R)-(4-(benzo[d]oxazol-2-yl)-6,7-dihydro-1H-imidazo[4,5-c]pyridin-5(4H)-yl)(5-(1-(difluoromethyl)-1H-pyrazol-3-yl)-1,3,4-oxadiazol-2-yl)methanone] | 1000 to 5000
O=C(c1nnc(-c2ccn(C(F)F)n2)o1)N1CCc2[nH]cnc2[C@H]1c1nc2ccccc2o1 [Example 846, (S)-(4-(benzo[d]oxazol-2-yl)-6,7-dihydro-1H-imidazo[4,5-c]pyridin-5(4H)-yl)(5-(1-(difluoromethyl)-1H-pyrazol-3-yl)-1,3,4-oxadiazol-2-yl)methanone] | ≤ 500
O=C(c1ccnn1CC(F)F)N1CCc2[nH]cnc2[C@H]1c1nc2cccc(F)c2o1 [Example 847, (S)-(1-(2,2-difluoroethyl)-1H-pyrazol-5-yl)(4-(7-fluorobenzo[d]oxazol-2-yl)-6,7-dihydro-1H-imidazo[4,5-c]pyridin-5(4H)-yl)methanone] | ≤ 500
O=C(c1ccnn1CC(F)F)N1CCc2[nH]cnc2[C@@H]1c1nc2cccc(F)c2o1 [Example 848, (R)-(1-(2,2-difluoroethyl)-1H-pyrazol-5-yl)(4-(7-fluorobenzo[d]oxazol-2-yl)-6,7-dihydro-1H-imidazo[4,5-c]pyridin-5(4H)-yl)methanone] | 500 to 1000
O=C(c1ccnn1CC(F)F)N1CCc2[nH]cnc2[C@@H]1c1nc2c(F)cccc2o1 [Example 849, (R)-(1-(2,2-difluoroethyl)-1H-pyrazol-5-yl)(4-(4-fluorobenzo[d]oxazol-2-yl)-6,7-dihydro-1H-imidazo[4,5-c]pyridin-5(4H)-yl)methanone] | ≤ 500
O=C(c1ccnn1CC(F)F)N1CCc2[nH]cnc2[C@H]1c1nc2c(F)cccc2o1 [Example 850, (S)-(1-(2,2-difluoroethyl)-1H-pyrazol-5-yl)(4-(4-fluorobenzo[d]oxazol-2-yl)-6,7-dihydro-1H-imidazo[4,5-c]pyridin-5(4H)-yl)methanone] | 1000 to 5000
CC(C)(C)c1nnc(C(=O)N2CCc3[nH]cnc3[C@@H]2c2nc3c(F)ccc(F)c3o2)o1 [Example 851, (R)-(5-(tert-butyl)-1,3,4-oxadiazol-2-yl)(4-(4,7-difluorobenzo[d]oxazol-2-yl)-6,7-dihydro-1H-imidazo[4,5-c]pyridin-5(4H)-yl)methanone] | 500 to 1000
CC(C)(C)c1nnc(C(=O)N2CCc3[nH]cnc3[C@H]2c2nc3c(F)ccc(F)c3o2)o1 [Example 852, (S)-(5-(tert-butyl)-1,3,4-oxadiazol-2-yl)(4-(4,7-difluorobenzo[d]oxazol-2-yl)-6,7-dihydro-1H-imidazo[4,5-c]pyridin-5(4H)-yl)methanone] | ≤ 500
O=C(c1nnc(-c2ccn(C(F)F)n2)o1)N1CCc2[nH]cnc2[C@@H]1c1nc2cccc(C(F)(F)F)c2o1 [Example 853, (R)-(5-(1-(difluoromethyl)-1H-pyrazol-3-yl)-1,3,4-oxadiazol-2-yl)(4-(7-(trifluoromethyl)benzo[d]oxazol-2-yl)-6,7-dihydro-1H-imidazo[4,5-c]pyridin-5(4H)-yl)methanone] | 500 to 1000
O=C(c1nnc(-c2ccn(C(F)F)n2)o1)N1CCc2[nH]cnc2[C@H]1c1nc2cccc(C(F)(F)F)c2o1 [Example 854, (S)-(5-(1-(difluoromethyl)-1H-pyrazol-3-yl)-1,3,4-oxadiazol-2-yl)(4-(7-(trifluoromethyl)benzo[d]oxazol-2-yl)-6,7-dihydro-1H-imidazo[4,5-c]pyridin-5(4H)-yl)methanone] | ≤ 500
O=C(c1nnc(C2CC2)o1)N1CCc2[nH]cnc2[C@H]1c1nc2c(F)ccc(F)c2o1 [Example 855, (S)-(5-cyclopropyl-1,3,4-oxadiazol-2-yl)(4-(4,7-difluorobenzo[d]oxazol-2-yl)-6,7-dihydro-1H-imidazo[4,5-c]pyridin-5(4H)-yl)methanone] | ≤ 500

— US20250171437A1 (Agios Pharmaceuticals,Inc., priority 2022, published 2025)
